Experimental data taken from patent US20260297060A1, “COMPOUNDS FOR THE DEGRADATION OF MUTANT BRAF” (C4 THERAPEUTICS, INC., priority 2023, published 2026).
Read-outs that look alike come from different tables or passages of the source.

What was measured:
BRAF V600E = biological target: T1, BRAF V600E (Homo sapiens, UniProt P15056+Q96SW2, V600E); assay: BRAF V600E HiBiT Degradation Assay; format: cell-based
T1 construct: knock-in of the HiBiT tag to the endogenous BRAF V600E locus; host or cells: A375.10 (A375 clonal line, CRISPR HiBiT knock-in at the endogenous BRAF V600E locus)
T1 sequence (P15056 whole entry V600E): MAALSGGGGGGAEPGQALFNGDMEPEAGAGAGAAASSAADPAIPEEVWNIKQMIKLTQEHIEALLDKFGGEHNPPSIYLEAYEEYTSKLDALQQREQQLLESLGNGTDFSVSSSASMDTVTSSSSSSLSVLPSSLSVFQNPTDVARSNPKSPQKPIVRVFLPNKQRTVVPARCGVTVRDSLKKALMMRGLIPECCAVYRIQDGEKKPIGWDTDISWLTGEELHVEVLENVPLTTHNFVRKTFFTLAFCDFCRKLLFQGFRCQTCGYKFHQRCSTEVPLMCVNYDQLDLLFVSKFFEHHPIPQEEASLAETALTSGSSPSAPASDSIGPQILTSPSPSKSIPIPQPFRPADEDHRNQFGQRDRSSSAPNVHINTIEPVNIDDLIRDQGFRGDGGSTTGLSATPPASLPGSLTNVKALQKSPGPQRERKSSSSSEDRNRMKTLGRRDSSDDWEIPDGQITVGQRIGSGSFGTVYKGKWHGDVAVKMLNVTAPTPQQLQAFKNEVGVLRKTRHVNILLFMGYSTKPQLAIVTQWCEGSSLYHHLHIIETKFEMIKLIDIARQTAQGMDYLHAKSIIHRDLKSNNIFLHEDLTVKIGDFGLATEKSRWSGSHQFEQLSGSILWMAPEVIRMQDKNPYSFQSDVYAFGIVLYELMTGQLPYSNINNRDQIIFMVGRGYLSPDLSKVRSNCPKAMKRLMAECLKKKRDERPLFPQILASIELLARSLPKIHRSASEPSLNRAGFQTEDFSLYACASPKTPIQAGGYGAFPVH
T1 sequence (Q96SW2 whole entry): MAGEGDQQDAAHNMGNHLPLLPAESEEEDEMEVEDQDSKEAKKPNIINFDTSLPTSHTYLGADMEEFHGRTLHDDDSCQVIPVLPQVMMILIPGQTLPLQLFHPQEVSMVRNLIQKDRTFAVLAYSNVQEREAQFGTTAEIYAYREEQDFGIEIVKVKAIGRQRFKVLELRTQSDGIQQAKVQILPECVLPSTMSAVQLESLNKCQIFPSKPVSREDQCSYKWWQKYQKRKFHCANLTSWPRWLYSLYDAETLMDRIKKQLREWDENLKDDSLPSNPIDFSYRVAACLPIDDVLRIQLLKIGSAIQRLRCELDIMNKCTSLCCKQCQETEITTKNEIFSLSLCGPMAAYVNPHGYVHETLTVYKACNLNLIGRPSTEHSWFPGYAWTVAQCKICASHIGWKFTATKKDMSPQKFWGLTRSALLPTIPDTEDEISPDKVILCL
T1 sequence (Q16531 whole entry partner): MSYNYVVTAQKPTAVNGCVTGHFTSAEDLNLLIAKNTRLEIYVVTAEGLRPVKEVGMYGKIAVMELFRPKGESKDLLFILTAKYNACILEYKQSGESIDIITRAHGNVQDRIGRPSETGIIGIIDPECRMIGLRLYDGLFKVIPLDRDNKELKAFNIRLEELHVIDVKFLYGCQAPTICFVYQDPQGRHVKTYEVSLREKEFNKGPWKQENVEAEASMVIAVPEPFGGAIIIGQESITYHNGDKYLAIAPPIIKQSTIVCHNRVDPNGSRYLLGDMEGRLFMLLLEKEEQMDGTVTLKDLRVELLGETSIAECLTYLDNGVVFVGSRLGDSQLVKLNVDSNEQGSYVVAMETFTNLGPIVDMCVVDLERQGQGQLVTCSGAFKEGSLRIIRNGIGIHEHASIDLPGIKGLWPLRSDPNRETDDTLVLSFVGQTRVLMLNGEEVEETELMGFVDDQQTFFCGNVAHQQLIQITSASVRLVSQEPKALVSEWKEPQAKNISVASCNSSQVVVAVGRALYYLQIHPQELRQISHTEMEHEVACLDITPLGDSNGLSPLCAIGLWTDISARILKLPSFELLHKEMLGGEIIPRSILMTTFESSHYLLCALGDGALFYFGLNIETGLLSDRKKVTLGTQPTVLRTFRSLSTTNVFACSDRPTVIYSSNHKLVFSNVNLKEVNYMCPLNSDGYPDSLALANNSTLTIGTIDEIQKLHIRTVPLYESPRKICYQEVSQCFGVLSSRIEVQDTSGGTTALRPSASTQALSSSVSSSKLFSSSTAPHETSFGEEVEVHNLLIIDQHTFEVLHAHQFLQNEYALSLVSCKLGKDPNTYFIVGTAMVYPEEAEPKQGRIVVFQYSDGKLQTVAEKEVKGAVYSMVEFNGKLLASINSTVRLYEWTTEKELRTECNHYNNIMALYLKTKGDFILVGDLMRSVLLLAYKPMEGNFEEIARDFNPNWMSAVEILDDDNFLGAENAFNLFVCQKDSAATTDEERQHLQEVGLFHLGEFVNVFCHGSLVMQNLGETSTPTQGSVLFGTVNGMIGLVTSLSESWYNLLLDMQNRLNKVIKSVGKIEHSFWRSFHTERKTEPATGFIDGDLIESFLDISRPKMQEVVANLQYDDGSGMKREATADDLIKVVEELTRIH
In short: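 Endogenous HiBiT knock-in on BRAF V600E in A375 cells (clone A375.10); 11-point half-log series, top 10 μM, 2, 6 or 24 h at 37° C. Lytic HiBiT luminescence, background-subtracted, normalized to DMSO; 4-parameter fit gives DC50, Emax (residual protein) and IP (inflection point).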

A375-NRAS^Q61K cells = assay: CTGlo Cell Viability Assay, A375-NRAS^Q61K (A375.11) cells, 96 hours; format: cell-based, human; conditions: A375.11 (A375-NRAS^Q61K) cells; for Emax / CTGlo A375.11 96 hours Emax: lowest % viability achieved
In short: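 A375 cells carrying BRAF V600E and NRAS Q61K were seeded at 250 cells/well with a 10-point half-log dose series (max 10 μM final). After 96 h at 37 °C, viability was read as ATP luminescence (CellTiter-Glo), background-subtracted and normalized to DMSO (100%). GI50 from 4-parameter fit; Emax is the lowest % viability.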

[1] = A375.10 cells, BRAF V600E, 2 hours, inflection point, read-out: HiBiT-Degradation A375.10 BRAF 2 hours IP
[2] = A375.10 cells, BRAF V600E, 2 hours, read-out: HiBiT-Degradation A375.10 BRAF 2 hours DC50
[3] = A375.10 cells, BRAF V600E, 2 hours, residual protein remaining, read-out: HiBiT-Degradation A375.10 BRAF 2 hours Emax
[4] = A375.10 cells, BRAF V600E, 2 hours, residual protein remaining
[5] = read-out: HiBiT-Degradation A375.10 BRAF 2 hours DC50, A375.10 cells, BRAF V600E, 2 hours
[6] = read-out: HiBiT-Degradation A375.10 BRAF 2 hours IP, A375.10 cells, BRAF V600E, 2 hours, inflection point

## CCN(C)S(=O)(=O)Nc1ccc(F)c(Oc2ccc3ncc(OCC4(F)CCN(C5CCC(c6cc7c(cc6F)c(N6CCC(=O)NC6=O)nn7C)CC5)CC4)nc3c2)c1C#N (single isomer, unassigned) [Compound 228, 7-[2-cyano-3-[[ethyl(methyl)sulfamoyl]amino]-6-fluoro-phenoxy]-2-[[1-[4-[3-(2,4-dioxohexahydropyrimidin-1-yl)-5-fluoro-1-methyl-indazol-6-yl]cyclohexyl]-4-fluoro-4-piperidyl]methoxy]quinoxaline]
BRAF V600E; [1]
  DC50: < 1 µM
BRAF V600E; [2]
  DC50: 1 to 10 µM
BRAF V600E; [3]
  Emax: 50 to 90%
A375-NRAS^Q61K cells; Homo sapiens, 96 h
  GI50: 1 to 10 µM
  Emax: 50 to 90%

## CCN(C)S(=O)(=O)Nc1ccc(F)c(Oc2ccc3ncc(OCC4(F)CCN(C5CCC(c6cc7c(cc6F)c(N6CCC(=O)NC6=O)nn7C)CC5)CC4)nc3c2)c1C#N (single isomer, unassigned) [Compound 229, 7-[2-cyano-3-[[ethyl(methyl)sulfamoyl]amino]-6-fluoro-phenoxy]-2-[[1-[4-[3-(2,4-dioxohexahydropyrimidin-1-yl)-5-fluoro-1-methyl-indazol-6-yl]cyclohexyl]-4-fluoro-4-piperidyl]methoxy]quinoxaline]
BRAF V600E; [1]
  DC50: < 1 µM
BRAF V600E; [2]
  DC50: < 1 µM
BRAF V600E; [4]
  HiBiT-Degradation A375.10 BRAF 2 hours Emax: *** (<=50%)
A375-NRAS^Q61K cells
  GI50: < 1 µM
  CTGlo A375.11 96 hours Emax: ** (<90% and >50%)

## CCN(C)S(=O)(=O)Nc1ccc(F)c(Oc2ccc3ncnc(OC4CC5(C4)CN(C4CCC(c6cc7c(cc6F)c(N6CCC(=O)NC6=O)nn7C)CC4)C5)c3c2)c1C#N (single isomer, unassigned) [Compound 232, 6-[2-cyano-3-[[ethyl(methyl)sulfamoyl]amino]-6-fluoro-phenoxy]-4-[[2-[4-[3-(2,4-dioxohexahydropyrimidin-1-yl)-5-fluoro-1-methyl-indazol-6-yl]cyclohexyl]-2-azaspiro[3.3]heptan-6-yl]oxy]quinazoline]
BRAF V600E; [1]
  DC50: < 1 µM
BRAF V600E; [2]
  DC50: < 1 µM
BRAF V600E; read-out: HiBiT-Degradation A375.10 BRAF 2 hours Emax, A375.10 cells, BRAF V600E, 2 hours, residual protein remaining
  Emax: 50 to 90%
A375-NRAS^Q61K cells; Homo sapiens, 96 h
  GI50: > 10 µM
  Emax: 50 to 90%

## CCN(C)S(=O)(=O)Nc1ccc(F)c(Oc2ccc3ncnc(OC4CC5(C4)CN(C4CCC(c6cc7c(cc6F)c(N6CCC(=O)NC6=O)nn7C)CC4)C5)c3c2)c1C#N (single isomer, unassigned) [Compound 233, 6-[2-cyano-3-[[ethyl(methyl)sulfamoyl]amino]-6-fluoro-phenoxy]-4-[[2-[4-[3-(2,4-dioxohexahydropyrimidin-1-yl)-5-fluoro-1-methyl-indazol-6-yl]cyclohexyl]-2-azaspiro[3.3]heptan-6-yl]oxy]quinazoline]
BRAF V600E
  HiBiT-Degradation A375.10 BRAF 2 hours Emax: ** (<90% and >50%)
BRAF V600E; [1]
  DC50: < 1 µM
BRAF V600E; [2]
  DC50: < 1 µM
A375-NRAS^Q61K cells
  GI50: > 10 µM
  CTGlo A375.11 96 hours Emax: ** (<90% and >50%)

## CCN(C)S(=O)(=O)Nc1ccc(F)c(Oc2ccc3ncn([C@H]4COC5(C4)CN(C4CCC(c6cc7c(cc6F)c(N6CCC(=O)NC6=O)nn7C)CC4)C5)c(=O)c3c2)c1C#N (single isomer, unassigned) [Compound 235]
BRAF V600E; [1]
  DC50: < 1 µM
BRAF V600E; [2]
  DC50: 1 to 10 µM
BRAF V600E; [3]
  Emax: < 50%
A375-NRAS^Q61K cells
  GI50: > 10 µM
A375-NRAS^Q61K cells; Homo sapiens, 96 h
  Emax: 50 to 90%

## CCN(C)S(=O)(=O)Nc1ccc(F)c(Oc2ccc3ncn([C@H]4COC5(C4)CN(C4CCC(c6cc7c(cc6F)c(N6CCC(=O)NC6=O)nn7C)CC4)C5)c(=O)c3c2)c1C#N (single isomer, unassigned) [Compound 236]
BRAF V600E; [1]
  DC50: < 1 µM
BRAF V600E; [2]
  DC50: < 1 µM
BRAF V600E; [4]
  HiBiT-Degradation A375.10 BRAF 2 hours Emax: *** (<=50%)
A375-NRAS^Q61K cells
  GI50: 1 to 10 µM
  CTGlo A375.11 96 hours Emax: ** (<90% and >50%)

## CCN(C)S(=O)(=O)Nc1ccc(F)c(Oc2ccc3ncn([C@@H]4COC5(C4)CN(C4CCC(c6cc7c(cc6F)c(N6CCC(=O)NC6=O)nn7C)CC4)C5)c(=O)c3c2)c1C#N (single isomer, unassigned) [Compound 237]
BRAF V600E; [1]
  DC50: < 1 µM
BRAF V600E; [2]
  DC50: < 1 µM
BRAF V600E; [3]
  Emax: < 50%
A375-NRAS^Q61K cells
  GI50: > 10 µM
A375-NRAS^Q61K cells; Homo sapiens, 96 h
  Emax: 50 to 90%

## CCN(C)S(=O)(=O)Nc1ccc(F)c(Oc2ccc3ncn([C@@H]4COC5(C4)CN(C4CCC(c6cc7c(cc6F)c(N6CCC(=O)NC6=O)nn7C)CC4)C5)c(=O)c3c2)c1C#N (single isomer, unassigned) [Compound 238]
BRAF V600E; [1]
  DC50: < 1 µM
BRAF V600E; [2]
  DC50: < 1 µM
BRAF V600E; [4]
  HiBiT-Degradation A375.10 BRAF 2 hours Emax: *** (<=50%)
BRAF V600E; A375.10 cells, HiBiT, BRAF V600E, 24 hours, read-out: HiBiT-Degradation A375.10 BRAF 24 hours DC50
  DC50: < 1 µM
BRAF V600E; A375.10 cells, HiBiT, BRAF V600E, 24 hours, read-out: HiBiT-Degradation A375.10 BRAF 24 hours Emax
  Emax: < 50%
BRAF V600E; A375.10 cells, HiBiT, BRAF V600E, 24 hours, read-out: HiBiT-Degradation A375.10 BRAF 24 hours IP
  DC50: < 1 µM
A375-NRAS^Q61K cells
  GI50: < 1 µM
  CTGlo A375.11 96 hours Emax: ** (<90% and >50%)

## CCN(C)S(=O)(=O)Nc1ccc(F)c(Oc2ccc3ncn(C4[C@H]5CN(C6CCC(c7cc8c(cc7F)c(N7CCC(=O)NC7=O)nn8C)CC6)C[C@@H]45)c(=O)c3c2)c1C#N (single isomer, unassigned) [Compound 240]
BRAF V600E; [1]
  DC50: < 1 µM
BRAF V600E; [2]
  DC50: < 1 µM
BRAF V600E; [3]
  Emax: < 50%
A375-NRAS^Q61K cells; Homo sapiens, 96 h
  GI50: 1 to 10 µM
  Emax: 50 to 90%

## CCN(C)S(=O)(=O)Nc1ccc(F)c(Oc2ccc3ncnc(OC4CC5(CCN(C6CCC(c7cc8c(cc7F)c(N7CCC(=O)NC7=O)nn8C)CC6)CC5)C4)c3c2)c1C#N (single isomer, unassigned) [Compound 243, 6-[2-cyano-3-[[ethyl(methyl)sulfamoyl]amino]-6-fluoro-phenoxy]-4-[[7-[4-[3-(2,4-dioxohexahydropyrimidin-1-yl)-5-fluoro-1-methyl-indazol-6-yl]cyclohexyl]-7-azaspiro[3.5]nonan-2-yl]oxy]quinazoline]
BRAF V600E; [1]
  DC50: < 1 µM
BRAF V600E; [2]
  DC50: 1 to 10 µM
BRAF V600E; [3]
  Emax: 50 to 90%
A375-NRAS^Q61K cells; Homo sapiens, 96 h
  GI50: 1 to 10 µM
  Emax: 50 to 90%

## CC(C)S(=O)(=O)Nc1ccc(F)c(Oc2ccc3ncc(C4CC5(CCN(C6CCC(c7cc8c(cc7F)c(N7CCC(=O)NC7=O)nn8C)CC6)CC5)C4)nc3c2)c1C#N (single isomer, unassigned) [Compound 248, N-[2-cyano-3-[3-[7-[4-[3-(2,4-dioxohexahydropyrimidin-1-yl)-5-fluoro-1-methyl-indazol-6-yl]cyclohexyl]-7-azaspiro[3.5]nonan-2-yl]quinoxalin-6-yl]oxy-4-fluoro-phenyl]propane-2-sulfonamide]
BRAF V600E; [1]
  DC50: < 1 µM
BRAF V600E; [2]
  DC50: < 1 µM
BRAF V600E; [3]
  Emax: < 50%
A375-NRAS^Q61K cells; Homo sapiens, 96 h
  GI50: 1 to 10 µM
  Emax: 50 to 90%

## CC(C)S(=O)(=O)Nc1ccc(F)c(Oc2ccc3ncc(C4CC5(CCN(C6CCC(c7cc8c(cc7F)c(N7CCC(=O)NC7=O)nn8C)CC6)CC5)C4)nc3c2)c1C#N (single isomer, unassigned) [Compound 249, N-[2-cyano-3-[3-[7-[4-[3-(2,4-dioxohexahydropyrimidin-1-yl)-5-fluoro-1-methyl-indazol-6-yl]cyclohexyl]-7-azaspiro[3.5]nonan-2-yl]quinoxalin-6-yl]oxy-4-fluoro-phenyl]propane-2-sulfonamide]
BRAF V600E; [1]
  DC50: < 1 µM
BRAF V600E; [2]
  DC50: < 1 µM
BRAF V600E; [4]
  HiBiT-Degradation A375.10 BRAF 2 hours Emax: *** (<=50%)
A375-NRAS^Q61K cells
  GI50: < 1 µM
  CTGlo A375.11 96 hours Emax: ** (<90% and >50%)

## Cn1nc(N2CCC(=O)NC2=O)c2cc(F)c([C@H]3CC[C@@H](N4CCC5(CC4)CC(c4cnc6ccc(Oc7c(F)ccc(NS(=O)(=O)N8CC[C@@H](F)C8)c7C#N)cc6n4)C5)CC3)cc21 (single isomer, unassigned) [Compound 268]
BRAF V600E; [1]
  DC50: < 1 µM
BRAF V600E; [2]
  DC50: < 1 µM
BRAF V600E; [3]
  Emax: < 50%
A375-NRAS^Q61K cells; Homo sapiens, 96 h
  GI50: < 1 µM
  Emax: < 50%

## Cn1nc(N2CCC(=O)NC2=O)c2cc(F)c(C3CCC(N4CCC5(CC4)CC(c4cnc6ccc(Oc7c(F)ccc(NS(=O)(=O)C8CCCC8)c7C#N)cc6n4)C5)CC3)cc21 (single isomer, unassigned) [Compound 270, N-[2-cyano-3-[3-[7-[4-[3-(2,4-dioxohexahydropyrimidin-1-yl)-5-fluoro-1-methyl-indazol-6-yl]cyclohexyl]-7-azaspiro[3.5]nonan-2-yl]quinoxalin-6-yl]oxy-4-fluoro-phenyl]cyclopentanesulfonamide]
BRAF V600E; [3]
  Emax: < 50%
BRAF V600E; [5]
  DC50: < 1 µM
BRAF V600E; [6]
  DC50: < 1 µM
A375-NRAS^Q61K cells; Homo sapiens, 96 h
  GI50: < 1 µM
  Emax: 50 to 90%

## Cn1nc(N2CCC(=O)NC2=O)c2cc(F)c(C3CCC(N4CCC5(CC4)CC(c4cnc6ccc(Oc7c(F)ccc(NS(=O)(=O)C8CCCC8)c7C#N)cc6n4)C5)CC3)cc21 (single isomer, unassigned) [Compound 271, N-[2-cyano-3-[3-[7-[4-[3-(2,4-dioxohexahydropyrimidin-1-yl)-5-fluoro-1-methyl-indazol-6-yl]cyclohexyl]-7-azaspiro[3.5]nonan-2-yl]quinoxalin-6-yl]oxy-4-fluoro-phenyl]cyclopentanesulfonamide]
BRAF V600E; [4]
  HiBiT-Degradation A375.10 BRAF 2 hours Emax: *** (<=50%)
BRAF V600E; [5]
  DC50: < 1 µM
BRAF V600E; [6]
  DC50: < 1 µM
A375-NRAS^Q61K cells
  GI50: < 1 µM
  CTGlo A375.11 96 hours Emax: *** (<=50%)
